Measured values published in the NIST ThermoML archive (doi:10.1016/j.jct.2013.09.039).
Numbers after ± are expanded uncertainties.

Experiment: xn = mol fraction of the nth substance listed
Settings: Liquid, Vibrating tube method

Cc1ccc(C)cc1 [1,4-dimethylbenzene] + COC(=O)OC
mass density [kg/m3]
Settings | x2 = 0.0432 | x2 = 0.195 | x2 = 0.3968 | x2 = 0.4933 | x2 = 0.5296 | x2 = 0.5993 | x2 = 0.7034 | x2 = 0.8023 | x2 = 0.8921 | x2 = 0.9478
288.15 K, 100 kPa | 871.8 ± 4 | 894.2 ± 4 | 924.2 ± 4 | 944.9 ± 4 | 953.3 ± 4 | 968.4 ± 4 | 992.3 ± 4 | 1010.6 ± 4 | 1038.1 ± 4 | 1052.9 ± 4
288.15 K, 5000 kPa | 875.5 ± 4 | 897.8 ± 4 | 931.9 ± 4 | 950.4 ± 4 | 957.3 ± 4 | 972.4 ± 4 | 996.2 ± 4 | – | 1042.5 ± 4 | 1057.2 ± 4
288.15 K, 10000 kPa | 879.1 ± 4 | 901.3 ± 4 | 935.7 ± 4 | 954.1 ± 4 | 961.2 ± 4 | 976.3 ± 4 | 1000.3 ± 4 | – | 1046.6 ± 4 | 1061.4 ± 4
288.15 K, 20000 kPa | 885.4 ± 4 | 907.8 ± 4 | 942.5 ± 4 | 961.4 ± 4 | 968.3 ± 4 | 983.7 ± 4 | 1007.8 ± 4 | – | 1054.5 ± 4 | 1069.4 ± 4
288.15 K, 30000 kPa | 891.3 ± 4 | 914 ± 4 | 949 ± 4 | 967.9 ± 4 | 974.9 ± 4 | 990.5 ± 4 | 1014.7 ± 4 | – | 1061.5 ± 4 | 1076.7 ± 4
288.15 K, 40000 kPa | 897.1 ± 4 | 920.1 ± 4 | 955.3 ± 4 | 974.3 ± 4 | 980.9 ± 4 | 997.1 ± 4 | 1021.4 ± 4 | – | 1068.7 ± 4 | 1083.8 ± 4
298.15 K, 100 kPa | 863 ± 4 | 884.5 ± 4 | 917.8 ± 4 | 935.8 ± 4 | 942.5 ± 4 | 957.3 ± 4 | 980.5 ± 4 | 998.4 ± 4 | 1025.5 ± 4 | 1040 ± 4
298.15 K, 5000 kPa | 867.3 ± 4 | 888.3 ± 4 | 922.5 ± 4 | 940.6 ± 4 | 947.1 ± 4 | 962 ± 4 | 985.4 ± 4 | 1003.4 ± 4 | 1030.6 ± 4 | 1044.9 ± 4
298.15 K, 10000 kPa | 870.4 ± 4 | 892.1 ± 4 | 925.8 ± 4 | 944 ± 4 | 950.7 ± 4 | 965.7 ± 4 | 989.1 ± 4 | – | 1034.7 ± 4 | 1049 ± 4
298.15 K, 20000 kPa | 877.1 ± 4 | 899.2 ± 4 | 933.2 ± 4 | 951.6 ± 4 | 958.2 ± 4 | 973.4 ± 4 | 997 ± 4 | – | 1042.9 ± 4 | 1057.5 ± 4
298.15 K, 30000 kPa | 883.4 ± 4 | 905.5 ± 4 | 939.9 ± 4 | 958.7 ± 4 | 965.4 ± 4 | 980.5 ± 4 | 1004.4 ± 4 | 1022.7 ± 4 | 1050.6 ± 4 | 1065 ± 4
298.15 K, 40000 kPa | 889.1 ± 4 | 911.7 ± 4 | 946.5 ± 4 | 965.1 ± 4 | 972 ± 4 | 987.3 ± 4 | 1011.2 ± 4 | 1030.1 ± 4 | 1057.9 ± 4 | 1072.7 ± 4
308.15 K, 100 kPa | 854.3 ± 4 | 875.2 ± 4 | 907.6 ± 4 | 925.2 ± 4 | 931.7 ± 4 | 946.3 ± 4 | 969 ± 4 | – | 1013.1 ± 4 | 1027.2 ± 4
308.15 K, 5000 kPa | 858.1 ± 4 | 879.3 ± 4 | 912.1 ± 4 | 929.7 ± 4 | 936.2 ± 4 | 950.8 ± 4 | 973.7 ± 4 | – | 1018 ± 4 | 1032.1 ± 4
308.15 K, 10000 kPa | 862 ± 4 | 883.3 ± 4 | 916.2 ± 4 | 934.1 ± 4 | 940.4 ± 4 | 955.2 ± 4 | 978.2 ± 4 | – | 1022.7 ± 4 | 1036.8 ± 4
308.15 K, 20000 kPa | 869.1 ± 4 | 890.7 ± 4 | 924 ± 4 | 941.8 ± 4 | 948.4 ± 4 | 958.3 ± 4 | 986.4 ± 4 | 1004.4 ± 4 | 1031.5 ± 4 | 1045.7 ± 4
308.15 K, 30000 kPa | 875.7 ± 4 | 897.5 ± 4 | 931.2 ± 4 | 949.4 ± 4 | 956 ± 4 | 970.9 ± 4 | 994.2 ± 4 | 1012.2 ± 4 | 1039.7 ± 4 | 1054 ± 4
308.15 K, 40000 kPa | 881.7 ± 4 | 904 ± 4 | 937.9 ± 4 | 956.3 ± 4 | 963 ± 4 | 978.1 ± 4 | 1001.5 ± 4 | 1019.8 ± 4 | 1047.4 ± 4 | 1061.7 ± 4
